What was measured:
[1] = target: T1, human adenosine A2A receptor (Homo sapiens, UniProt P29274); experiment: Human adenosine A2A receptor [3H]-SCH-58261 binding assay; details: for Ki: affinity to human adenosine A2A receptor, read-out: Ki HA2A; for selectivity (A1/A2a): calculated ratio of the affinity to the HA1 receptor to the HA2a receptor
T1 construct: expressed in transfected cells; host or cells: CHO cells, Semliki Forest virus expression system; membrane preparation

HA1 adenosine receptor = target: T2, HA1 adenosine receptor (Homo sapiens, UniProt P30542); experiment: Human adenosine A1 receptor affinity (Ki hA1); format: binding; details: affinity to human adenosine A1 receptor
T2 sequence (P30542 1-326): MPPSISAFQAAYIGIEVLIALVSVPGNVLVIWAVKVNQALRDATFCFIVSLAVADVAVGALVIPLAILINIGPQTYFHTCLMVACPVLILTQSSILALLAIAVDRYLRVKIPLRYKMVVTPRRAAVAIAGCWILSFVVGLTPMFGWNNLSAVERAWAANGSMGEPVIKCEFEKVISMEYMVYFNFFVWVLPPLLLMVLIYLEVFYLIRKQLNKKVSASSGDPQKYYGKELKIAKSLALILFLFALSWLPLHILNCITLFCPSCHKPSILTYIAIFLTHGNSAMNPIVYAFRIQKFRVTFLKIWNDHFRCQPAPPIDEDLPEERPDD

T1 sequence (P29274 whole entry): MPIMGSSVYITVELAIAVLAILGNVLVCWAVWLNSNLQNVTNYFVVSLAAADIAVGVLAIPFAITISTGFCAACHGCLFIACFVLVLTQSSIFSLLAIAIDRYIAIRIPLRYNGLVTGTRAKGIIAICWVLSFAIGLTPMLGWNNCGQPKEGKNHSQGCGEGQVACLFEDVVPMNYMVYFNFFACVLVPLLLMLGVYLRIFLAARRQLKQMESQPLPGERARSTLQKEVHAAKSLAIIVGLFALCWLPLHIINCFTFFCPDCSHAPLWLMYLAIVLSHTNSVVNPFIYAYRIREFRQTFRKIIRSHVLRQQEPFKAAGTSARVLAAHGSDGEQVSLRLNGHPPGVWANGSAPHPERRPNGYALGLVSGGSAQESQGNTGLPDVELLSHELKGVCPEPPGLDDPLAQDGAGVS

Structure (SMILES)	Ki [1] [nM]	selectivity (A1/A2a) [1]	Ki (HA1 adenosine receptor) [nM]
COc1cc(CNC(=O)c2cc(N)n3nc(-c4ccco4)nc3c2)cc(OC)c1OC [Example 111, 5-Amino-2-furan-2-yl-[1,2,4]triazolo[1,5-a]pyridine-7-carboxylic acid 3,4,5-trimethoxy-benzylamide]	45.2	27.1	1220
COc1cc(CNC(=O)c2cc(N)n3nc(-c4ccc(C)o4)nc3c2)cc(OC)c1OC [Example 112, 5-Amino-2-(5-methyl-furan-2-yl)-[1,2,4]triazolo[1,5-a]pyridine-7-carboxylic acid 3,4,5-trimethoxy-benzylamide]	147	16.6	2440
Cc1ccc(-c2nc3cc(C(=O)N(C)C4CCCCC4)cc(N)n3n2)s1 [Example 113, 5-Amino-2-(5-methyl-thiophen-2-yl)-[1,2,4]triazolo[1,5-a]pyridine-7-carboxylic acid cyclohexyl-methyl-amide]	17.2	17.8	307
Cc1ccc(-c2nc3cc(C(=O)N4CCCCC4)cc(N)n3n2)s1 [Example 114, [5-Amino-2-(5-methyl-thiophen-2-yl)-[1,2,4]triazolo[1,5-a]pyridin-7-yl]-piperidin-1-yl-methanone]	28.3	27.3	772
Cc1ccc(-c2nc3cc(C(=O)N4CCOCC4)cc(N)n3n2)s1 [Example 115, [5-Amino-2-(5-methyl-thiophen-2-yl)-[1,2,4]triazolo[1,5-a]pyridin-7-yl]-morpholin-4-yl-methanone]	222	13.2	2920
Cc1ccc(-c2nc3cc(C(=O)N(C)Cc4ccccc4)cc(N)n3n2)s1 [Example 116, 5-Amino-2-(5-methyl-thiophen-2-yl)-[1,2,4]triazolo[1,5-a]pyridine-7-carboxylic acid benzyl-methyl-amide]	15.3	11.1	170
Cc1ccc(-c2nc3cc(C(=O)N(Cc4ccccc4)C(C)C)cc(N)n3n2)s1 [Example 117, 5-Amino-2-(5-methyl-thiophen-2-yl)-[1,2,4]triazolo[1,5-a]pyridine-7-carboxylic acid benzyl-isopropyl-amide]	9.2	19.2	178
Nc1cc(C(=O)N2CCCC2)cc2nc(-c3ccccc3O)nn12 [Example 118, [5-Amino-2-(2-hydroxy-phenyl)-[1,2,4]triazolo[1,5-a]pyridin-7-yl]-pyrrolidin-1-yl-methanone]	126	15.5	1960
CCCCNC(=O)c1cc(N)n2nc(-c3nccs3)nc2c1 [Example 119, 5-Amino-2-thiazol-2-yl-[1,2,4]triazolo[1,5-a]pyridine-7-carboxylic acid butylamide]	17.1	25.0	429
CCN(CC)C(=O)c1cc(N)n2nc(-c3nccs3)nc2c1 [Example 120, 5-Amino-2-thiazol-2-yl-[1,2,4]triazolo[1,5-a]pyridine-7-carboxylic acid diethylamide]	77.4	35.4	2740
CC(C)N(Cc1ccccc1)C(=O)c1cc(N)n2nc(-c3ccccc3O)nc2c1 [Example 121, 5-Amino-2-(2-hydroxy-phenyl)-[1,2,4]triazolo[1,5-a]pyridine-7-carboxylic acid benzyl-isopropyl-amide]	17	12.0	204
CC(C)N(C(=O)c1cc(N)n2nc(-c3nccs3)nc2c1)C(C)C [Example 122, 5-Amino-2-thiazol-2-yl-[1,2,4]triazolo[1,5-a]pyridine-7-carboxylic acid diisopropylamide]	317	10.5	3320
Nc1cc(C(=O)NC2CCCCC2)cc2nc(-c3nccs3)nn12 [Example 123, 5-Amino-2-thiazol-2-yl-[1,2,4]triazolo[1,5-a]pyridine-7-carboxylic acid cyclohexylamide]	43.5	16.0	698
CN(C(=O)c1cc(N)n2nc(-c3nccs3)nc2c1)C1CCCCC1 [Example 124, 5-Amino-2-thiazol-2-yl-[1,2,4]triazolo[1,5-a]pyridine-7-carboxylic acid cyclohexyl-methyl-amide]	99.2	15.2	1510
Nc1cc(C(=O)NC2CCc3ccccc32)cc2nc(-c3nccs3)nn12 (stereo not drawn) [Example 125, 5-Amino-2-thiazol-2-yl-[1,2,4]triazolo[1,5-a]pyridine-7-carboxylic acid indan-1-ylamide]	24.4	10.5	255
CC(NC(=O)c1cc(N)n2nc(-c3nccs3)nc2c1)c1ccccc1 (stereo not drawn) [Example 126, 5-Amino-2-thiazol-2-yl-[1,2,4]triazolo[1,5-a]pyridine-7-carboxylic acid (1-phenyl-ethyl)-amide]	54.4	4.3	232

Second part, the compound after the results:

Ki [1] [nM]	selectivity (A1/A2a) [1]	Ki (HA1 adenosine receptor) [nM]	Structure (SMILES)
104	18.9	1970	CCN(CC)C(=O)c1cc(N)n2nc(-c3cccs3)nc2c1 [Example 127, 5-Amino-2-thiophen-2-yl-[1,2,4]triazolo[1,5-a]pyridine-7-carboxylic acid diethylamide]
101	14.5	1460	Nc1cc(C(=O)N2CCCCC2)cc2nc(-c3cccs3)nn12 [Example 129, (5-Amino-2-thiophen-2-yl-[1,2,4]triazolo[1,5-a]pyridin-7-yl)-piperidin-1-yl-methanone]
15.2	8.4	128	COc1ccccc1CNC(=O)c1cc(N)n2nc(-c3nccs3)nc2c1 [Example 130, 5-Amino-2-thiazol-2-yl-[1,2,4]triazolo[1,5-a]pyridine-7-carboxylic acid 2-methoxy-benzylamide]
19.4	17.8	345	CCCCNC(=O)c1cc(N)n2nc(-c3ccc(Br)o3)nc2c1 [Example 131, 5-Amino-2-(5-bromo-furan-2-yl)-[1,2,4]triazolo[1,5-a]pyridine-7-carboxylic acid butylamide]
33.8	22.7	767	Nc1cc(C(=O)N2CCOCC2)cc2nc(-c3ccc(Br)o3)nn12 [Example 132, [5-Amino-2-(5-bromo-furan-2-yl)-[1,2,4]triazolo[1,5-a]pyridin-7-yl]-morpholin-4-yl-methanone]
146	13.3	1940	COc1cc(CNC(=O)c2cc(N)n3nc(-c4ccc(Br)o4)nc3c2)cc(OC)c1OC [Example 133, 5-Amino-2-(5-bromo-furan-2-yl)-[1,2,4]triazolo[1,5-a]pyridine-7-carboxylic acid 3,4,5-trimethoxy-benzylamide]
287	9.3	2680	Cn1cccc1-c1nc2cc(C(=O)N3CCCC3)cc(N)n2n1 [Example 134, [5-Amino-2-(1-methyl-1H-pyrrol-2-yl)-[1,2,4]triazolo[1,5-a]pyridin-7-yl]-pyrrolidin-1-yl-methanone]
166	10.9	1820	CC(C)N(Cc1ccccc1)C(=O)c1cc(N)n2nc(-c3cccn3C)nc2c1 [Example 135, 5-Amino-2-(1-methyl-1H-pyrrol-2-yl)-[1,2,4]triazolo[1,5-a]pyridine-7-carboxylic acid benzyl-isopropyl-amide]
12	18.5	222	CC(C)N(Cc1ccccc1)C(=O)c1cc(N)n2nc(-c3ccco3)nc2c1 [Example 136, 5-Amino-2-furan-2-yl-[1,2,4]triazolo[1,5-a]pyridine-7-carboxylic acid benzyl-isopropyl-amide]
11	19.8	218	CCCCNC(=O)c1cc(N)n2nc(-c3ccc(C)o3)nc2c1 [Example 137, 5-Amino-2-(5-methyl-furan-2-yl)-[1,2,4]triazolo[1,5-a]pyridine-7-carboxylic acid butylamide]
123	10.3	1270	Cc1ccc(-c2nc3cc(C(=O)NC4CCCCC4)cc(N)n3n2)o1 [Example 138, 5-Amino-2-(5-methyl-furan-2-yl)-[1,2,4]triazolo[1,5-a]pyridine-7-carboxylic acid cyclohexylamide]
74.5	23.5	1750	Cc1ccc(-c2nc3cc(C(=O)N4CCOCC4)cc(N)n3n2)o1 [Example 139, [5-Amino-2-(5-methyl-furan-2-yl)-[1,2,4]triazolo[1,5-a]pyridin-7-yl]-morpholin-4-yl-methanone]
7.3	14.7	107	Cc1ccc(-c2nc3cc(C(=O)N(C)Cc4ccccc4)cc(N)n3n2)o1 [Example 140, 5-Amino-2-(5-methyl-furan-2-yl)-[1,2,4]triazolo[1,5-a]pyridine-7-carboxylic acid benzyl-methyl-amide]
5.9	20.8	123	Cc1ccc(-c2nc3cc(C(=O)N(Cc4ccccc4)C(C)C)cc(N)n3n2)o1 [Example 141, 5-Amino-2-(5-methyl-furan-2-yl)-[1,2,4]triazolo[1,5-a]pyridine-7-carboxylic acid benzyl-isopropyl-amide]

Source: US6506772B1, “Substituted [1,2,4]triazolo[1,5a]pyridine derivatives with activity as adenosine receptor ligands” (Hoffmann-La Roche Inc., priority 2000, dated 2003)
